Source: patent US8299048B2, “Hexahydrocyclopentyl[f]indazole sulfonamides and derivatives thereof as selective glucocorticoid receptor modulators” (Merck Sharp & Dohme Corp., priority 2008, dated 2012)

What follows are molecules tested against T1, glucocorticoid receptor (Homo sapiens, UniProt P04150) (assay: Ligand binding assay (GR BIND)).
T1 construct: endogenous in cells
T1 sequence (P04150 1-777): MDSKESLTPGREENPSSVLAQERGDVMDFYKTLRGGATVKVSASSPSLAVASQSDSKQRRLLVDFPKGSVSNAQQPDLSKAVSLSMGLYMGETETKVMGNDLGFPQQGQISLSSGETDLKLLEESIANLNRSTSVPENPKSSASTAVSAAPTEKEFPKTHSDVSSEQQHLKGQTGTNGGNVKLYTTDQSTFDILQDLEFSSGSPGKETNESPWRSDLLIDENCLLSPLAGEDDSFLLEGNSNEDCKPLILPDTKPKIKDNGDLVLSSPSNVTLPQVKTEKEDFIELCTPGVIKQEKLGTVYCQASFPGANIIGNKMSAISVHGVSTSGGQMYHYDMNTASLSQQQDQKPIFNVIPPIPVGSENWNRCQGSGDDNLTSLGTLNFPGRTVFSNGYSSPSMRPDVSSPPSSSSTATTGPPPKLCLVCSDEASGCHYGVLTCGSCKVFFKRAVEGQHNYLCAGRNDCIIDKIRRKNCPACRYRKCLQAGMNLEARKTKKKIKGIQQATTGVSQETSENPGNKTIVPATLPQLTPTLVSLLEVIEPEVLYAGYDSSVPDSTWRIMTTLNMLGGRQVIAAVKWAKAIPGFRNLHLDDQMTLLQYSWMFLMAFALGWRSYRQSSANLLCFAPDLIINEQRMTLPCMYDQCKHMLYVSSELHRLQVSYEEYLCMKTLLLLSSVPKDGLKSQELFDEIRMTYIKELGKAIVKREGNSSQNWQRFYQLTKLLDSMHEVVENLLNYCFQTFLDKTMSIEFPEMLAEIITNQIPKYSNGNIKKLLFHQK
Method: • Materials: • Binding Buffer: TEGM (10 mM Tris-HCl, 1 mM EDTA, 10% glycerol, 1 mM beta-mecaptoethanol, 10 mM Sodium Molybdate, pH 7.2) • 50% HAP Slurry: Calbiochem Hydroxylapatite, Fast Flow, in 10 mM Tris, pH 8.0 and 1 mM EDTA. • Wash Buffer: 40 mM Tris, pH7.5, 100 mM KCl, 1 mM EDTA and 1 mM EGTA.
Phenol red-free Trypsin-EDTA is diluted in the same PBS1:10. The cell layers are rinsed with 1× Trypsin, extra Trypsin is poured out, and the cell layers are incubated at 37° C. for ˜2 min. The flask is tapped and checked for signs of cell detachment. Once the cells begin to slide off the flask, the complete media is added. The cells are counted at this point, then diluted to the appropriate concentration and split into flasks or dishes for further culturing (Usually 1:3 to 1:6 dilution).
When the cells are 70 to 85% confluent, they are detached as described above, and collected by centrifuging at 1000 g for 10 minutes at 4° C. The cell pellet is washed twice with TEGM (10 mM Tris-HCl, 1 mM EDTA, 10% glycerol, 1 mM beta-mercaptoethanol, 10 mM Sodium Molybdate, pH 7.2). After the final wash, the cells are resuspended in TEGM at a concentration of 10^7 cells/mL. The cell suspension is snap frozen in liquid nitrogen or ethanol/dry ice bath and transferred to −80° C. freezer on dry ice. Before setting up the binding assay, the frozen samples are left on ice-water to just thaw (˜1 hr). Then the samples are centrifuged at 12,500 g to 20,000 g for 30 min at 4° C. The supernatant is used to set-up assay right away. If using 50 μL of supernatant, the test compound can be prepared in 50 μL of the TEGM buffer.
1×TEGM buffer is prepared, and the isotope-containing assay mixture is prepared in the following order: EtOH (2% final concentration in reaction), 3H-DEX (Amersham Biosciences) and 1×TEGM. [e.g. For 100 samples, 200 μL (100×2) of EtOH+4.25 μL of 1:10 ^3H—Dex stock+2300 μL (100×23) 1×TEGM]. The compound is serially diluted, e.g., if starting final conc. is 1 μM, and the compound is in 25 μL of solution, for duplicate samples, 75 μL of 4×1 μM solution is made and 3 μL of 100 μM is added to 72 μL of buffer, and 1:5 serial dilution.
25 μL of ^3H-DEX (6 nM) trace and 25 μL compound solution are first mixed together, followed by addition of 50 μL receptor solution. The reaction is gently mixed, spun briefly at about 200 rpm and incubated at 4° C. overnight. 100 μL of 50% HAP slurry is prepared and added to the incubated reaction which is then vortexed and incubated on ice for 5 to 10 minutes. The reaction mixture is vortexed twice more to resuspend HAP while incubating reaction. The samples in 96-well format are then washed in wash buffer using The FilterMate™ Universal Harvester plate washer (Packard). The washing process transfers HAP pellet containing ligand-bound expressed receptor to Unifilter-96 GF/B filter plate (Packard). The HAP pellet on the filter plate is incubated with 50 μL of MICROSCINT (Packard) scintillint for 30 minutes before being counted on the TopCount microscintillation counter (Packard). […] are calculated using DEX as a reference.

Row | SMILES | Ki [nM]
1 | C[C@]12Cc3cnn(-c4ccc(F)cc4)c3C=C1CC[C@@H]2CN(CCO)S(=O)(=O)c1ccccc1C(N)=O [Example 117, 2-{[{[(4αR,5S)-1-(4-fluorophenyl)-4α-methyl-1,4,4α,5,6,7-hexahydrocyclopenta[f]indazol-5-yl]methyl}(2-hydroxyethyl)amino]sulfonyl}benzamide] | 9.4
2 | COCCN(C[C@H]1CCC2=Cc3c(cnn3-c3ccc(F)cc3)C[C@@]21C)S(=O)(=O)CCN1C(=O)c2ccccc2C1=O [Example 118, 2-(1,3-dioxo-1,3-dihydro-2H-isoindol-2-yl)-N-{[(4αR,5S)-1-(4-fluorophenyl)-4α-methyl-1,4,4α,5,6,7-hexahydrocyclopenta[f]indazol-5-yl]methyl}-N-(2-methoxyethyl)ethanesulfonamide] | 3.8
3 | C[C@]12Cc3cnn(-c4ccc(F)cc4)c3C=C1CC[C@@H]2CN(CCc1ccccc1F)S(=O)(=O)CCN1C(=O)c2ccccc2C1=O [Example 121, 2-(1,3-dioxo-1,3-dihydro-2H-isoindol-2-yl)-N-[2-(2-fluorophenyl)ethyl]-N-{[(4αR,5S)-1-(4-fluorophenyl)-4α-methyl-1,4,4α,5,6,7-hexahydrocyclopenta[f]indazol-5-yl]methyl}ethanesulfonamide] | 5.3
4 | C[C@]12Cc3cnn(-c4ccc(F)cc4)c3C=C1CC[C@@H]2CN(CCc1ccccc1O)S(=O)(=O)Cc1cccc(C(F)(F)F)c1 [Example 122, N-{[(4αR,5S)-1-(4-fluorophenyl)-4α-methyl-1,4,4α,5,6,7-hexahydrocyclopenta[f]indazol-5-yl]methyl}-N-[2-(2-hydroxyphenyl)ethyl]-1-[3-(trifluoromethyl)phenyl]methanesulfonamide] | 2.9
5 | Cc1noc(C)c1S(=O)(=O)N(CCc1ccccc1O)C[C@H]1CCC2=Cc3c(cnn3-c3ccc(F)cc3)C[C@@]21C [Example 123, N-{[(4αR,5S)-1-(4-fluorophenyl)-4α-methyl-1,4,4α,5,6,7-hexahydrocyclopenta[f]indazol-5-yl]methyl}-N-[2-(2-hydroxyphenyl)ethyl]-3,5-dimethylisoxazole-4-sulfonamide] | 0.9
6 | C[C@]12Cc3cnn(-c4ccc(F)cc4)c3C=C1CC[C@@H]2CN(CCc1ccccc1F)S(=O)(=O)Cc1cccnc1 [Example 124, N-[2-(2-fluorophenyl)ethyl]-N-{[(4αR,5S)-1-(4-fluorophenyl)-4α-methyl-1,4,4α,5,6,7-hexahydrocyclopenta[f]indazol-5-yl]methyl}-1-pyridin-3-ylmethanesulfonamide] | 0.7
7 | COc1ccccc1CCN(C[C@H]1CCC2=Cc3c(cnn3-c3ccc(F)cc3)C[C@@]21C)S(=O)(=O)Cc1cccnc1 [Example 125, N-{[(4αR,5S)-1-(4-fluorophenyl)-4α-methyl-1,4,4α,5,6,7-hexahydrocyclopenta[f]indazol-5-yl]methyl}-N-[2-(2-methoxyphenyl)ethyl]-1-pyridin-3-ylmethanesulfonamide] | 1
8 | C[C@]12Cc3cnn(-c4ccc(F)cc4)c3C=C1CC[C@@H]2CN(CCc1ccccc1O)S(=O)(=O)Cc1cccnc1 [Example 131, N-{[(4αR,5S)-1-(4-fluorophenyl)-4α-methyl-1,4,4α,5,6,7-hexahydrocyclopenta[f]indazol-5-yl]methyl}-N-[2-(2-hydroxyphenyl)ethyl]-1-pyridin-3-ylmethanesulfonamide] | 1.7

Continued, values first:

Row | Ki [nM] | SMILES
9 | 2.3 | COc1ccccc1CCN(C[C@H]1CCC2=Cc3c(cnn3-c3ccc(F)cc3)C[C@@]21C)S(=O)(=O)Cc1cccc(C(F)(F)F)c1 [Example 119, N-{[(4αR,5S)-1-(4-fluorophenyl)-4α-methyl-1,4,4α,5,6,7-hexahydrocyclopenta[f]indazol-5-yl]methyl}-N-[2-(2-methoxyphenyl)ethyl]-1-[3-(trifluoromethyl)phenyl]methanesulfonamide]
10 | 1.3 | COc1ccccc1CCN(C[C@H]1CCC2=Cc3c(cnn3-c3ccc(F)cc3)C[C@@]21C)S(=O)(=O)CC(F)(F)F [Example 120, 2,2,2-trifluoro-N-{[(4αR,5S)-1-(4-fluorophenyl)-4α-methyl-1,4,4α,5,6,7-hexahydrocyclopenta[f]indazol-5-yl]methyl}-N-[2-(2-methoxyphenyl)ethyl]ethanesulfonamide]
11 | 0.9 | COc1cccc(CCN(C[C@H]2CCC3=Cc4c(cnn4-c4ccc(F)cc4)C[C@@]32C)S(=O)(=O)CC(F)(F)F)c1 [Example 126, 2,2,2-trifluoro-N-{[(4αR,5S)-1-(4-fluorophenyl)-4α-methyl-1,4,4α,5,6,7-hexahydrocyclopenta[f]indazol-5-yl]methyl}-N-[2-(3-methoxyphenyl)ethyl]ethanesulfonamide]
12 | 1.1 | COc1ccc(CCN(C[C@H]2CCC3=Cc4c(cnn4-c4ccc(F)cc4)C[C@@]32C)S(=O)(=O)CC(F)(F)F)cc1 [Example 127, 2,2,2-trifluoro-N-{[(4αR,5S)-1-(4-fluorophenyl)-4α-methyl-1,4,4α,5,6,7-hexahydrocyclopenta[f]indazol-5-yl]methyl}-N-[2-(4-methoxyphenyl)ethyl]ethanesulfonamide]
13 | 0.8 | C[C@]12Cc3cnn(-c4ccc(F)cc4)c3C=C1CC[C@@H]2CN(CCc1ccccn1)S(=O)(=O)CC(F)(F)F [Example 128, 2,2,2-trifluoro-N-{[(4αR,5S)-1-(4-fluorophenyl)-4α-methyl-1,4,4α,5,6,7-hexahydrocyclopenta[f]indazol-5-yl]methyl}-N-(2-pyridin-2-ylethyl)ethanesulfonamide]
14 | 1.9 | C[C@]12Cc3cnn(-c4ccc(F)cc4)c3C=C1CC[C@@H]2CN(CCc1ccncc1)S(=O)(=O)CC(F)(F)F [Example 129, 2,2,2-trifluoro-N-{[(4αR,5S)-1-(4-fluorophenyl)-4α-methyl-1,4,4α,5,6,7-hexahydrocyclopenta[f]indazol-5-yl]methyl}-N-(2-pyridin-4-ylethyl)ethanesulfonamide]
15 | 1.8 | C[C@]12Cc3cnn(-c4ccc(F)cc4)c3C=C1CC[C@@H]2CN(CCc1ccc(O)cc1)S(=O)(=O)CC(F)(F)F [Example 130, 2,2,2-trifluoro-N-{[(4αR,5S)-1-(4-fluorophenyl)-4α-methyl-1,4,4α,5,6,7-hexahydrocyclopenta[f]indazol-5-yl]methyl}-N-[2-(4-hydroxyphenyl)ethyl]ethanesulfonamide]
16 | 5.5 | C[C@]12Cc3cnn(-c4ccc(F)cc4)c3C=C1CC[C@@H]2CN(Cc1cccnn1)S(=O)(=O)CC(F)(F)F [Example 132, 2,2,2-trifluoro-N-{[(4αR,5S)-1-(4-fluorophenyl)-4α-methyl-1,4,4α,5,6,7-hexahydrocyclopenta[f]indazol-5-yl]methyl}-N-(pyridazin-3-ylmethyl)ethanesulfonamide]
